Measured values published in patent publication US20050239656A1, “Pyridine compounds or salts thereof and herbicides containing the same” (priority 2002, published 2005).

Experiments:
barnyardgrass [1] = assay: Test Example 1: foliage treatment, upland pot test; format: in vivo, Echinochloa crus-galli L.; details: active ingredient 500 g/ha, observed 18th to 23rd day, 0 = non-treated, 100 = complete kill
Outline: (§1)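 Visual growth-control score, 0% (like untreated) to 100% (complete kill), taken on days 18 to 23 after foliar spraying. Leaf stage at treatment: barnyardgrass 1.3–2.8, rice 1.2–2.6, wheat 1.3–2.4, soybean 0.1–0.4. Spray: wettable powder or EC in 500 L/ha water, 0.1% v/v spreader added.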

crabgrass [2] = assay: Test Example 1: foliage treatment, upland pot test; format: in vivo, Digitaria sanguinalis L.; details: active ingredient 500 g/ha, observed 18th to 23rd day, 0 = non-treated, 100 = complete kill
green foxtail [3] = assay: Test Example 1: foliage treatment, upland pot test; format: in vivo, Setaria viridis L.; details: active ingredient 500 g/ha, observed 18th to 23rd day, 0 = non-treated, 100 = complete kill
redroot pigweed [4] = assay: Test Example 1: foliage treatment, upland pot test; format: in vivo, Amaranthus retroflexus L.; details: active ingredient 500 g/ha, observed 18th to 23rd day, 0 = non-treated, 100 = complete kill
prickly sida [5] = assay: Test Example 1: foliage treatment, upland pot test; format: in vivo, Sida spinosa L.; details: active ingredient 500 g/ha, observed 18th to 23rd day, 0 = non-treated, 100 = complete kill
velvetleaf [6] = assay: Test Example 1: foliage treatment, upland pot test; format: in vivo, Abutilon theophrasti MEDIC.; details: active ingredient 500 g/ha, observed 18th to 23rd day, 0 = non-treated, 100 = complete kill
rice [7] = assay: Test Example 1: foliage treatment, upland pot test; format: in vivo, Oryza sativa L.; details: crop, active ingredient 500 g/ha, observed 18th to 23rd day, 0 = non-treated, 100 = complete kill
Outline: as §1

wheat [8] = assay: Test Example 1: foliage treatment, upland pot test; format: in vivo, Triticum spp.; details: crop, active ingredient 500 g/ha, observed 18th to 23rd day, 0 = non-treated, 100 = complete kill
Outline: as §1

corn [9] = assay: Test Example 1: foliage treatment, upland pot test; format: in vivo, Zea mays L.; details: crop, active ingredient 500 g/ha, observed 18th to 23rd day, 0 = non-treated, 100 = complete kill
Outline: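 Corn seeds were sown in upland field soil held in a 1/170,000 ha pot and grown to the 2.1 to 3.2 leaf stage. A wettable powder or emulsifiable concentrate of the test compound was diluted with water at 500 L/ha, given 0.1% (v/v) agricultural spreader, and sprayed onto the foliage with a small sprayer. Growth controlling degree (%) was scored visually 18th to 23rd days later, from 0 (non-treated) to 100 (complete kill).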

soybean [10] = assay: Test Example 1: foliage treatment, upland pot test; format: in vivo, Glycine max Merr.; details: crop, active ingredient 500 g/ha, observed 18th to 23rd day, 0 = non-treated, 100 = complete kill
Outline: as §1

barnyardgrass [11] = assay: Test Example 2: soil surface treatment, upland pot test; format: in vivo, Echinochloa crus-galli L.; details: observed 20th to 28th day
Outline: (§2)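 Soil surface treated 1 day post-sowing. Formulation: WP or EC, predetermined a.i., diluted to 1,500 L/ha. Pot size 1/170,000 ha, upland soil. Readout: visual % control, 0 = non-treated, 100 = dead, days 20–28.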

crabgrass [12] = assay: as above; format: in vivo, Digitaria sanguinalis L.; details: observed 20th to 28th day
Outline: as §2

green foxtail [13] = assay: as above; format: in vivo, Setaria viridis L.; details: observed 20th to 28th day
Outline: as §2

redroot pigweed [14] = assay: as above; format: in vivo, Amaranthus retroflexus L.; details: observed 20th to 28th day
Outline: as §2

prickly sida [15] = assay: as above; format: in vivo, Sida spinosa L.; details: observed 20th to 28th day
Outline: as §2

velvetleaf [16] = assay: as above; format: in vivo, Abutilon theophrasti MEDIC.; details: observed 20th to 28th day
Outline: as §2

rice [17] = assay: as above; format: in vivo, Oryza sativa L.; details: observed 20th to 28th day
Outline: as §2

wheat [18] = assay: as above; format: in vivo, Triticum spp.; details: observed 20th to 28th day
Outline: as §2

corn [19] = assay: as above; format: in vivo, Zea mays L.; details: active ingredient 500 g/ha, observed 20th to 28th day
Outline: as §2

soybean [20] = assay: as above; format: in vivo, Glycine max Merr.; details: observed 20th to 28th day
Outline: as §2

barnyardgrass [21] = assay: Test Example 3: paddy pot test, application under submerged conditions; format: in vivo, Echinochloa crus-galli L.; details: active ingredient 250 g/ha; submerged application at 0.5 leaf stage; visually observed 14 days after application; 0 = non-treated, 100 = complete kill
Outline: (§3)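 Barnyardgrass and japanese bulrush sown in flooded paddy soil in greenhouse pots, japanese ribbon wapato tubers planted 1–2 days later; water depth kept at 3–4 cm. Diluted wettable powder or emulsifiable concentrate applied into water at 0.5-leaf or primary-leaf stage at set active-ingredient doses. Growth control scored visually at 14 days, 0 (untreated) to 100% (complete kill).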

japanese bulrush = assay: as above; format: in vivo, Scirpus juncoides; details: active ingredient 250 g/ha; submerged application at 0.5 leaf stage; visually observed 14 days after application; 0 = non-treated, 100 = complete kill
Outline: as §3

rice (var. Nihonbare) = assay: Test Example 3: paddy pot test, transplanted rice; format: in vivo, Oryza sativa L.; details: active ingredient 250 g/ha, applied 4th day after transplantation, visually observed 21st day after application, 0 = non-treated, 100 = complete kill
Outline: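 Rice (var. Nihonbare) at 2 leaf stage transplanted 3 cm deep into puddled paddy soil under 3–4 cm flooding; on day 4 after transplanting, diluted wettable powder or emulsifiable concentrate applied by pipette under submerged conditions at a set active-ingredient dose. Growth scored visually 21 days after application, 0 (untreated) to 100 (complete kill) %.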

SMILES | Growth controlling degree (%) Barnyardgrass (barnyardgrass [1]) | Growth controlling degree (%) Crabgrass (crabgrass [2]) | Growth controlling degree (%) Green foxtail (green foxtail [3]) | Growth controlling degree (%) Redroot pigweed (redroot pigweed [4]) | Growth controlling degree (%) Prickly sida (prickly sida [5]) | Growth controlling degree (%) Velvetleaf (velvetleaf [6]) | Growth controlling degree (%) Rice (rice [7]) | Growth controlling degree (%) wheat (wheat [8]) | Growth controlling degree (%) Corn (corn [9]) | Growth controlling degree (%) Soybean (soybean [10]) | Growth controlling degree (%) Barnyardgrass (barnyardgrass [11]; active ingredient 500 g/ha) | Growth controlling degree (%) Crabgrass (crabgrass [12]; active ingredient 500 g/ha) | Growth controlling degree (%) Redroot pigweed (redroot pigweed [14]; active ingredient 500 g/ha) | Growth controlling degree (%) Prickly sida (prickly sida [15]; active ingredient 500 g/ha) | Growth controlling degree (%) Velvetleaf (velvetleaf [16]; active ingredient 500 g/ha) | Growth controlling degree (%) Rice (rice [17]; active ingredient 500 g/ha) | Growth controlling degree (%) wheat (wheat [18]; active ingredient 500 g/ha) | Growth controlling degree (%) Barnyardgrass (barnyardgrass [21]) | Growth controlling degree (%) Japanese bulrush (japanese bulrush) | Growth controlling degree (%) Rice (rice (var. Nihonbare)) | other results
Cc1ccc(OC(C)C(=O)N(C)C(c2cnccc2C(F)(F)F)C(C)C)cc1 (mixture of isomers) [I-131] | 70% | 80% | 70% | 70% | 70% | 50% | 30% | 50% | 50% | 80% | 100% | 100% | 30% | 60% | 0% | 20% | 20% | 100% | 95% | 10% | Growth controlling degree (%) Green foxtail (green foxtail [13]; active ingredient 500 g/ha): 100%; Growth controlling degree (%) Corn (corn [19]): 10%; Growth controlling degree (%) Soyabean (soybean [20]; active ingredient 500 g/ha): 40%
CC(Oc1ccc(Br)cc1)C(=O)N(C)C(c1cnccc1C(F)(F)F)C(C)C (mixture of isomers) [I-132] | 70% | 90% | 60% | 70% | 80% | 60% | 10% | 10% | 80% | 80% | 98% | 90% | 10% | 70% | 0% | 10% | 10% | 100% | 80% | 20% | Growth controlling degree (%) Corn (corn [19]): 0%; Growth controlling degree (%) Soyabean (soybean [20]; active ingredient 500 g/ha): 10%
CC(Oc1ccc(F)cc1)C(=O)N(C)C(c1cnccc1C(F)(F)F)C(C)C (mixture of isomers) [I-133] | 70% | 70% | 70% | 70% | 80% | 70% | 40% | 40% | 80% | 80% | 100% | 98% | 50% | 80% | 50% | 70% | 40% | 100% | 95% | 10% | Growth controlling degree (%) Green foxtail (green foxtail [13]; active ingredient 500 g/ha): 100%; Growth controlling degree (%) Corn (corn [19]): 50%; Growth controlling degree (%) Soyabean (soybean [20]; active ingredient 500 g/ha): 30%
CC(C)C(c1cnccc1C(F)(F)F)N(C)S(=O)(=O)c1ccc(F)cc1 (racemic) [I-124] | 80% | 95% | 70% | 50% | 80% | 70% | 40% | 60% | 60% | 80% | 100% | 100% | 60% | 90% | 80% | 20% | 10% | 100% | 70% | 0% | Growth controlling degree (%) Green foxtail (green foxtail [13]; active ingredient 500 g/ha): 100%; Growth controlling degree (%) Corn (corn [19]): 20%; Growth controlling degree (%) Soyabean (soybean [20]; active ingredient 500 g/ha): 30%
CCCCC(=O)N(C)C(c1cnccc1C(F)(F)F)C(C)C (centres unmarked) [I-199] | 70% | 80% | 70% | 60% | 70% | 60% | 50% | 50% | 60% | 60% | – | – | – | – | – | – | – | 100% | 98% | 40% | Growth controlling degree (%) Barnyardgrass (barnyardgrass [11]; active ingredient 250 g/ha): 100%; Growth controlling degree (%) Crabgrass (crabgrass [12]; active ingredient 250 g/ha): 100%; Growth controlling degree (%) Green foxtail (green foxtail [13]; active ingredient 250 g/ha): 100%; Growth controlling degree (%) Redroot pigweed (redroot pigweed [14]; active ingredient 250 g/ha): 70%; Growth controlling degree (%) Prickly sida (prickly sida [15]; active ingredient 250 g/ha): 80%; Growth controlling degree (%) Velvetleaf (velvetleaf [16]; active ingredient 250 g/ha): 50%; Growth controlling degree (%) Rice (rice [17]; active ingredient 250 g/ha): 90%; Growth controlling degree (%) wheat (wheat [18]; active ingredient 250 g/ha): 50%; Growth controlling degree (%) Soyabean (soybean [20]; active ingredient 250 g/ha): 20%
